# Reference: patent US7749526B2, “Vermin-repellant compositions and compounds” (Novartis AG, priority 2002, dated 2010)
# Columns and labels:
# [1] = tested on: Rhipicephalus sanguineus (nymphs); assay: Arena test in vitro against Rhipicephalus sanguineus (nymphs); conditions: even up to a dilution of 3.2 μg/cm^2
# Description: (§1) This method is carried out in titre plates having 6 wells with a cross-section of 5 cm each, using a computer-supported video system. Each well of the titre plate is lined with a circular filter paper or another suitable carrier material. The substance of formula (I) to be tested is dissolved in methanol, acetonitrile or another suitable solvent, with ultrasound treatment and heating being employed for poorly-soluble substances. In an amount of 1 to 100 μg/cm^2, the dissolved test substance is placed in the centre of the filter paper on a quadrant or circular area of ca. 2.4 cm^2 radius. 4 of the 6 wells are filled with different test substances or with the same test substance in different dilutions (e.g. 1, 3.2, 5, 10 and 20 μg/cm^2) The 5th well is treated with DEET (N,N-diethyl-m-toluamide) as standard substance. The 6th well is filled with the pure solvent and serves as a control. […] In this way, neutral and repellent substances are determined. At the same time, the duration of activity of the test substance is determined and compared with that of the standard. […] This frequency is evaluated statistically and thus quantitatively by the Willcoxon method in a comparison with the control and with the standard. […]
# [2] = tested on: parasite to be tested, e.g. ticks; assay: Arena test method for testing vermin-repellent substances; conditions: 1 to 100 μg/cm^2 on filter paper; video evaluation versus control and DEET standard
# Description: Arena Test Method for Testing Vermin-repellent Substances
# This method is carried out in titre plates having 6 wells with a cross-section of 5 cm each, using a computer-supported video system. Each well of the titre plate is lined with a circular filter paper or another suitable carrier material. The substance of formula (I) to be tested is dissolved in methanol, acetonitrile or another suitable solvent, with ultrasound treatment and heating being employed for poorly-soluble substances. In an amount of 1 to 100 μg/cm^2, the dissolved test substance is placed in the centre of the filter paper on a quadrant or circular area of ca. 2.4 cm^2 radius. 4 of the 6 wells are filled with different test substances or with the same test substance in different dilutions (e.g. 1, 3.2, 5, 10 and 20 μg/cm^2) The 5th well is treated with DEET (N,N-diethyl-m-toluamide) as standard substance. The 6th well is filled with the pure solvent and serves as a control. […]
# At intervals of 5 seconds, the video camera takes individual pictures of all 6 wells. […] In this way, neutral and repellent substances are determined. At the same time, the duration of activity of the test substance is determined and compared with that of the standard. […] This frequency is evaluated statistically and thus quantitatively by the Willcoxon method in a comparison with the control and with the standard. […]
# [3] = tested on: ticks of the genus Ixodes ricinus; assay: In-vivo comparison on dogs of anti-tick action following spray application; conditions: Beagle dogs; for anti-tick activity in the course of 3 successive days (in words): single spray application
# Description: In-vivo comparison on dogs in respect of the anti-tick action of 2-propyl-pentanoic acid-bis-(2-methoxyethyl)-amide according to the present invention with DEET (in the form of PARAPIC DOG® (a tick repellent containing DEET)) following spray application.
# The following formulations of active ingredient are used in the test which follows: […]
# Prior art composition of the Parapic anti-tick spray: • active substance: 15% N,N-Diethyl-3-methylbenzamide (DEET); 15% • ethylbutylacetylaminopropionate (EBMP), isopropanol, methacrylic acid copolymer, carbamide, fragrance (perfume).
# Inventive composition of the 2-propyl-pentanoic acid-bis-(2-methoxyethyl )-amide spray: active substance: 2-propyl-pentanoic acid-bis-(2-methoxyethyl )-amide 4.5%; Pluronic F6® 2.0%; water 10.0%, isopropanol ad 100.0%.
# The aim of the test is to make a comparison, under natural conditions, of the commercially available anti-vermin product Parapic Dog® with a typical representative of a compound of formula (I), namely 2-propyl-pentanoic acid-bis-(2-methoxyethyl)-amide. According to the packaging information one should reach with Parapic Dog® an 80% anti-tick protection over a period of 48 hours. The active ingredient of Parapic Dog® is DEET, which is the chemical substance N,N-Diethyl-3-methylbenzamide. Products based on the active ingredient DEET, such as Parapic Dog® are widely used against ticks on dogs and cats, and also on humans. Actually, the majority of the currently used anti-tick products is based on DEET, and the mostly used product in dogs is said Parapic Dog®.
# Test Protocol: 12 Beagle dogs are divided into groups of 4. To distinguish them, each dog is given a numbered label. Group 1 is treated with a 4.5% 2-propyl-pentanoic acid-bis-(2-methoxy-ethyl)-amide spray (3645mg a.i./m^2). Group 2 is treated with Parapic Dog®-Spray ([…] DEET/3645 mg a.i./m^2). Group 3 remains untreated and serves as a control.
# All twelve dogs are taken on 3 successive days to a wooded plot infected with ticks of the genus Ixodes ricinus and are left to run around there. They are free to move around there for 2 hours. An evaluation is made directly after returning from the wood. The two-hour walks are repeated on the next 2 days without the dogs being treated again, and the evaluation is again made directly after returning from the wood. This is effected by carefully searching the fur and the skin of each animal for ticks adhered thereto. The ticks are counted and compared with the number of ticks in the control group.
# [4] = tested on: Boophilus microplus Biarra (larvae); assay: Arena test in vitro against Boophilus microplus Biarra (larvae); conditions: even up to a dilution of 3.2 μg/cm^2
# Description: as §1
# [5] = tested on: Amblyomma hebraeum or variegatum (nymphs); assay: Arena test in vitro against Amblyomma hebraeum or variegatum (nymphs); conditions: even up to a dilution of 3.2 μg/cm^2
# Description: as §1
# vermin = conditions: volatilizes rather rapidly; cited from earlier work
SMILES,long-term action against Rhipicephalus sanguineus nymphs [1],repellent activity in arena test [2],"anti-tick action after 1 day ([3]; single spray application 3645 mg a.i./m^2, 2 hour walk in tick-infested wood, versus untreated control, after 1 day)","anti-tick action after 2 days ([3]; single spray application 3645 mg a.i./m^2, 2 hour walk in tick-infested wood, versus untreated control, after 2 days)","anti-tick action after 3 days ([3]; single spray application 3645 mg a.i./m^2, 2 hour walk in tick-infested wood, versus untreated control, after 3 days)",anti-tick activity in the course of 3 successive days (in words) [3],long-term action against Boophilus larvae [4],long-term action against Amblyomma nymphs [5],time after which reapplication is needed (vermin)
"CCCC(CCC)C(=O)N(CCOC)CCOC [Compound no. 1.31, 2-propyl-pentanoic acid-bis-(2-methoxyethyl)-amide]",especially marked long-term action,particularly active,100%,98%,79%,very good results,especially marked long-term action,especially marked long-term action,–
"CCN(CC)C(=O)c1cccc(C)c1 [DEET, N,N-diethyl-m-toluamide, reference compound]",–,–,–,–,–,drops abruptly after 2 days,–,–,ca. 2 hours
